# Key:
# Test in all cases: KinaseProfiler kinase selectivity assay
# Type in all cases: biochemical
# CDK1/cyclinB(h) = CDK1/cyclinB(h) (Homo sapiens, UniProt P06493)
# Procedure: (§1) All compounds were prepared to 50× final assay concentration in 100% DMSO. This working stock of the compound was added to the assay well as the first component in the reaction, followed by the remaining components. In the standard KinaseProfiler™ service, there is no pre-incubation step between the compound and the kinase prior to initiation of the reaction. The positive control wells contain all components of the reaction, except the compound of interest; however, DMSO (at a final concentration of 2%) is included in these wells to control for solvent effects. The blank wells contain all components of the reaction, with a reference inhibitor replacing the compound of interest. This abolishes kinase activity and establishes the base-line (0% kinase activity remaining).
# MAPKAP-K2(h) = MAPKAP-K2(h) (Homo sapiens, UniProt P49137)
# Procedure: as §1
# TAK1(h) = TAK1(h) (Homo sapiens, UniProt O43318)
# Procedure: as §1
# PDGFRβ(h) = PDGFRβ(h) (Homo sapiens, UniProt P09619)
# Procedure: as §1
# PRAK(h) = PRAK(h) (Homo sapiens, UniProt Q8IW41)
# Procedure: as §1
# PI3 Kinase (p120γ)(h) = PI3 Kinase (p120γ)(h) (Homo sapiens, UniProt P48736)
# Procedure: as §1
# PKCθ(h) = PKCθ(h) (Homo sapiens, UniProt Q04759)
# Procedure: as §1
# EphB4(h) = EphB4(h) (Homo sapiens, UniProt P54760)
# Procedure: as §1
# LOK(h) = LOK(h) (Homo sapiens, UniProt O94804)
# Procedure: as §1
# EphA5(h) = EphA5(h) (Homo sapiens, UniProt P54756)
# Procedure: as §1
# PAK2(h) = PAK2(h) (Homo sapiens, UniProt Q13177)
# Procedure: as §1
# c-RAF(h) = c-RAF(h) (Homo sapiens, UniProt P04049)
# Procedure: as §1
# SAPK2a(h) = SAPK2a(h) (Homo sapiens, UniProt Q16539)
# Procedure: as §1
# IKKα(h) = IKKα(h) (Homo sapiens, UniProt O15111)
# Procedure: as §1
# DRAK1(h) = DRAK1(h) (Homo sapiens, UniProt Q9UEE5)
# Procedure: as §1
# MLK1(h) = MLK1(h) (Homo sapiens, UniProt P80192)
# Procedure: as §1
# JAK2(h) = JAK2(h) (Homo sapiens, UniProt O60674)
# Procedure: as §1
# PKBα(h) = PKBα(h) (Homo sapiens, UniProt P31749)
# Procedure: as §1
# Lyn(h) = Lyn(h) (Homo sapiens, UniProt P07948)
# Procedure: as §1
# NEK2(h) = NEK2(h) (Homo sapiens, UniProt P51955)
# Procedure: as §1
# CaMKI(h) = CaMKI(h) (Homo sapiens, UniProt Q14012)
# Procedure: as §1
# PKCα(h) = PKCα(h) (Homo sapiens, UniProt P17252)
# Procedure: as §1
# Pim-1(h) = Pim-1(h) (Homo sapiens, UniProt P11309)
# Procedure: as §1
# CDK7/cyclinH/MAT1(h) = CDK7/cyclinH/MAT1(h) (Homo sapiens, UniProt P50613)
# Procedure: as §1
# Aurora-A(h) = Aurora-A(h) (Homo sapiens, UniProt O14965)
# Procedure: as §1
# [1] = target: PI3 Kinase (p110δ/p85α)(h) (Homo sapiens, UniProt O00329)
# Procedure: as §1
# Fyn(h) = Fyn(h) (Homo sapiens, UniProt P06241)
# Procedure: as §1
# Mnk2(h) = Mnk2(h) (Homo sapiens, UniProt Q9HBH9)
# Procedure: as §1
# eEF-2K(h) = eEF-2K(h) (Homo sapiens, UniProt O00418)
# Procedure: as §1
# EGFR(h) = EGFR(h) (Homo sapiens, UniProt P00533)
# Procedure: as §1
# IGF-1R(h) = IGF-1R(h) (Homo sapiens, UniProt P08069)
# Procedure: as §1
# CDK7/cyclinH/MAT1(h), sequence (P50613 whole entry): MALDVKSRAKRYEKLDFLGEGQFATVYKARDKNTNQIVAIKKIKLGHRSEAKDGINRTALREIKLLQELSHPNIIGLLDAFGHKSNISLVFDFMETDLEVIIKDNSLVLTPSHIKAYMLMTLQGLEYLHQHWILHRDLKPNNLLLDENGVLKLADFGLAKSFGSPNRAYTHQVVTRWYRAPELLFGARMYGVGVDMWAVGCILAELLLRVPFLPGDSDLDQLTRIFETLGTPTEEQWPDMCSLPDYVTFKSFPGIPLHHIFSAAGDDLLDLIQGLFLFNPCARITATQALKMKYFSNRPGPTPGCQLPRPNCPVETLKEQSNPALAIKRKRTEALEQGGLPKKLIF
# CDK7/cyclinH/MAT1(h), sequence (P51946 whole entry partner): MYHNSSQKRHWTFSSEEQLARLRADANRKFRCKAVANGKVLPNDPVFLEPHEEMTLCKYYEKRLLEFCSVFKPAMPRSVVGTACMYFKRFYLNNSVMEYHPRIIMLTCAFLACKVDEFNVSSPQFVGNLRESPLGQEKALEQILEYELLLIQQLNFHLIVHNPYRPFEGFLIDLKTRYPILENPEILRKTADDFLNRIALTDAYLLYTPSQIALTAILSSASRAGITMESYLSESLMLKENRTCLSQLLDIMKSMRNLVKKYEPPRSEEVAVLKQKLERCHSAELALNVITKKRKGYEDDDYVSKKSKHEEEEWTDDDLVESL
# CDK7/cyclinH/MAT1(h), sequence (P51948 whole entry partner): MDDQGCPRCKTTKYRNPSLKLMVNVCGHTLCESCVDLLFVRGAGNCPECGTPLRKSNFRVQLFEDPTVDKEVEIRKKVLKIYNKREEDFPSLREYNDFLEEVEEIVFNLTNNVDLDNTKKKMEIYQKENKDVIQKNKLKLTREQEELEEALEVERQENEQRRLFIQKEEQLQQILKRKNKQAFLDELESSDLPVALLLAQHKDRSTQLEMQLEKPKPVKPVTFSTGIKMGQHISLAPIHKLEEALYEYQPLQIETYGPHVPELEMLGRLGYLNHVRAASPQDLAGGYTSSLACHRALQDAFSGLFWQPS
# PRAK(h), sequence (Q8IW41 whole entry): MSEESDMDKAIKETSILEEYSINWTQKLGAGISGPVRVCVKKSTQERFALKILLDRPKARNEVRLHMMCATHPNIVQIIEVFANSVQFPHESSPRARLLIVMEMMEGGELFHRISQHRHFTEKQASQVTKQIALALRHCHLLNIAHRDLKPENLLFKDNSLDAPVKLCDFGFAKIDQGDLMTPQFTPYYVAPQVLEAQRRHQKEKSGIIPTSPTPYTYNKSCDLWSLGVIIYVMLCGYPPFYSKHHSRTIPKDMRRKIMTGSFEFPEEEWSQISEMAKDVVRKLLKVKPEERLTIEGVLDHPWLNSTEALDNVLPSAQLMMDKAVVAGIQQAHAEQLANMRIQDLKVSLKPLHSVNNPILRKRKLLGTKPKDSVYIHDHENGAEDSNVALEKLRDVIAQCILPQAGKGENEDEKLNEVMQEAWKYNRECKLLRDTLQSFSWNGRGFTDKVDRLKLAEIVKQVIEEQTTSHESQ
# Fyn(h), sequence (P06241 whole entry): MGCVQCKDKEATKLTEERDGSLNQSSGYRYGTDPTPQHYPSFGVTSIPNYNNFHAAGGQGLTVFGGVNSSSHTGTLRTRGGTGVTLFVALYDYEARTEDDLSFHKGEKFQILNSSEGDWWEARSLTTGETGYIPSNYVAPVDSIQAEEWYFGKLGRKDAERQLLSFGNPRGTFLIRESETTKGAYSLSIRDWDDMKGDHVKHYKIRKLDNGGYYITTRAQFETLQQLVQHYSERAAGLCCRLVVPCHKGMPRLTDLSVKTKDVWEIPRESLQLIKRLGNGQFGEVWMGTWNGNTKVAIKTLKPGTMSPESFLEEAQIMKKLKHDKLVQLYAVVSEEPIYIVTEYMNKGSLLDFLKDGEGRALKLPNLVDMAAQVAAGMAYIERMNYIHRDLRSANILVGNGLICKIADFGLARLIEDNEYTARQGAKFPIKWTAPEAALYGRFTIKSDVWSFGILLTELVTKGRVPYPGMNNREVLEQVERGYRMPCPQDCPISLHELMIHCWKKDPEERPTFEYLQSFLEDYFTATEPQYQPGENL
# PI3 Kinase (p110δ/p85α)(h), sequence (O00329 whole entry): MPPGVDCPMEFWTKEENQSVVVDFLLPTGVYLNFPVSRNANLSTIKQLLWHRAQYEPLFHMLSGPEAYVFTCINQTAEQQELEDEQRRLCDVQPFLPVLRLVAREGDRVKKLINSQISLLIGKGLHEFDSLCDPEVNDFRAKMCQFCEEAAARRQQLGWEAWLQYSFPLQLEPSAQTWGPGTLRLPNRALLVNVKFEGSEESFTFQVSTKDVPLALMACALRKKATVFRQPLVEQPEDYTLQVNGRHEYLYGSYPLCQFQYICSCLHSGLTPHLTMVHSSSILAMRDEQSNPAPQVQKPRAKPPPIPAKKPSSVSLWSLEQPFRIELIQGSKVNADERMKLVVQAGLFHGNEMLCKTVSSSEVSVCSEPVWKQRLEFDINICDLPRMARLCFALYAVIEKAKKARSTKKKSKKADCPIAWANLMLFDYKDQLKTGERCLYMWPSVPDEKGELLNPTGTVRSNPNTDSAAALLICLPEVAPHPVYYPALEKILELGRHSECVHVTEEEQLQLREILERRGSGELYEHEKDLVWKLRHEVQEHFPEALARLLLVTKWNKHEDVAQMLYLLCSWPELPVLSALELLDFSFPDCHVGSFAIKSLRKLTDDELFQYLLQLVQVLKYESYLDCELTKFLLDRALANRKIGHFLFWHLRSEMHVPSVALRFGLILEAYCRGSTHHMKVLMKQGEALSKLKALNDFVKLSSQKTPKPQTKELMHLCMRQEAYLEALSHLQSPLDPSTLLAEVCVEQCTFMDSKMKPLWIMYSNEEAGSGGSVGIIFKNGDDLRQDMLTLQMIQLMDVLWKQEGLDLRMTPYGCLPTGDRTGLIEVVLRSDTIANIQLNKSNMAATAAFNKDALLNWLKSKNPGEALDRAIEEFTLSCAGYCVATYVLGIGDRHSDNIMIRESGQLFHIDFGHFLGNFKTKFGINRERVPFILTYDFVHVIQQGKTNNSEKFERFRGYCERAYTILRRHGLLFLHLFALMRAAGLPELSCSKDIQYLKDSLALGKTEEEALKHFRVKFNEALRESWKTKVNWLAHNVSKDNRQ
# PI3 Kinase (p110δ/p85α)(h), sequence (P27986 whole entry partner): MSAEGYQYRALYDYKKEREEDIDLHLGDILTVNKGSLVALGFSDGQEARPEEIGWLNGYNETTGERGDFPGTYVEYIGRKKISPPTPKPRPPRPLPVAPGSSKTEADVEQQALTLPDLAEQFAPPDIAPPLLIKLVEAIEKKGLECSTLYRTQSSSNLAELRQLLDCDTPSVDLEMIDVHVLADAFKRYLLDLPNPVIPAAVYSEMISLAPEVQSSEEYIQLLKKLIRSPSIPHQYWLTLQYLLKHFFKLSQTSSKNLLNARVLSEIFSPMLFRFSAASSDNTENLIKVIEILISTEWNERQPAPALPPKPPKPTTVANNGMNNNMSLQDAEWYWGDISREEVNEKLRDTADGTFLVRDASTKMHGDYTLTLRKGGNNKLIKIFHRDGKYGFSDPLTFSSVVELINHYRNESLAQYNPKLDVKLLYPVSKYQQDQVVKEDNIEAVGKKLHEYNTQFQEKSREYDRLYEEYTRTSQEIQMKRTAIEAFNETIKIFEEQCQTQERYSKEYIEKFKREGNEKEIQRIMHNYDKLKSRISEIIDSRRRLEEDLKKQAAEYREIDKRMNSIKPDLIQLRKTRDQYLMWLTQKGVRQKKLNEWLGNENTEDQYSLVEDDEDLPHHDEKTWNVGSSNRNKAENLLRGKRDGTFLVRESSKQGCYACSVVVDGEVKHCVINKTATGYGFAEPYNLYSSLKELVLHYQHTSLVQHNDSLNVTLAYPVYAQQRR
# PDGFRβ(h), sequence (P09619 33-1106): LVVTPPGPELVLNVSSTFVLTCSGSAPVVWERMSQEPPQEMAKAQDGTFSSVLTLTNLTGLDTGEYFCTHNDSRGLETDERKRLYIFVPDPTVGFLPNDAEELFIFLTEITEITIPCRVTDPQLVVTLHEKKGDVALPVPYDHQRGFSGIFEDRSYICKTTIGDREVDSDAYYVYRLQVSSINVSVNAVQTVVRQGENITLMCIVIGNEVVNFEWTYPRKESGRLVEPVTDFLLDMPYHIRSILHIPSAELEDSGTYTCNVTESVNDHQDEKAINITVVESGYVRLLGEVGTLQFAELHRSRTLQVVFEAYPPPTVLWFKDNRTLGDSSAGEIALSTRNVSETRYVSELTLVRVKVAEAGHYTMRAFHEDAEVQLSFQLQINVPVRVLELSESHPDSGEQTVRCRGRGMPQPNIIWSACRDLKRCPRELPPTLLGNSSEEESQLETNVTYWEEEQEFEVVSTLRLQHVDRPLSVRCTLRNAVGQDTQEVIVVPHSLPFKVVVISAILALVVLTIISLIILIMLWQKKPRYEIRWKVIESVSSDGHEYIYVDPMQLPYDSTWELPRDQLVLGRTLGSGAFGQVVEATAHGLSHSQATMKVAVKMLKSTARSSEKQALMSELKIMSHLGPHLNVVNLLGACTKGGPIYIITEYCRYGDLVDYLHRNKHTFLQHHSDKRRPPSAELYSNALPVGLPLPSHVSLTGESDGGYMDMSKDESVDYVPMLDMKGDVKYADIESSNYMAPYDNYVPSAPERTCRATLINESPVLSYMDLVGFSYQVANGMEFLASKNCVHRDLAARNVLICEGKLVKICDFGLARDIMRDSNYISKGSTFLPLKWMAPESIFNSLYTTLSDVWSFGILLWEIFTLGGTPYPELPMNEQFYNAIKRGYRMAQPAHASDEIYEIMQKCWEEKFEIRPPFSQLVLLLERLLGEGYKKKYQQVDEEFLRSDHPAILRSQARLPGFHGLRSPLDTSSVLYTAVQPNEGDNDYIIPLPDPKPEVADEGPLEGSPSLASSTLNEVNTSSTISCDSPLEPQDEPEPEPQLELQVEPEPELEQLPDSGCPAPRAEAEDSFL
structure (smiles),measurement,setting,value
Cc1ccc2c(Nc3cccc(OC(F)(F)F)c3)nccc2c1Nc1ncccc1-c1ncnc2[nH]cnc12 [LUT014],remaining activity at 0.01 µM,CDK1/cyclinB(h); Lut014 @ 0.01 μM,113%
same,remaining activity at 1 µM,CDK1/cyclinB(h); Lut014 @ 1 μM,102%
same,remaining activity at 0.01 µM,MAPKAP-K2(h); Lut014 @ 0.01 μM,110%
same,remaining activity at 1 µM,MAPKAP-K2(h); Lut014 @ 1 μM,103%
same,remaining activity at 0.01 µM,TAK1(h); Lut014 @ 0.01 μM,91%
same,remaining activity at 1 µM,TAK1(h); Lut014 @ 1 μM,97%
same,remaining activity at 0.01 µM,PDGFRβ(h); Lut014 @ 0.01 μM,98%
same,remaining activity at 1 µM,PDGFRβ(h); Lut014 @ 1 μM,103%
same,remaining activity at 0.01 µM,PRAK(h); Lut014 @ 0.01 μM,101%
same,remaining activity at 1 µM,PRAK(h); Lut014 @ 1 μM,103%
same,remaining activity at 0.01 µM,PI3 Kinase (p120γ)(h); Lut014 @ 0.01 μM,96%
same,remaining activity at 1 µM,PI3 Kinase (p120γ)(h); Lut014 @ 1 μM,83%
same,remaining activity at 0.01 µM,PKCθ(h); Lut014 @ 0.01 μM,106%
same,remaining activity at 1 µM,PKCθ(h); Lut014 @ 1 μM,109%
same,remaining activity at 0.01 µM,EphB4(h); Lut014 @ 0.01 μM,93%
same,remaining activity at 1 µM,EphB4(h); Lut014 @ 1 μM,38%
same,remaining activity at 0.01 µM,LOK(h); Lut014 @ 0.01 μM,98%
same,remaining activity at 1 µM,LOK(h); Lut014 @ 1 μM,83%
same,remaining activity at 0.01 µM,EphA5(h); Lut014 @ 0.01 μM,99%
same,remaining activity at 1 µM,EphA5(h); Lut014 @ 1 μM,56%
same,remaining activity at 0.01 µM,PAK2(h); Lut014 @ 0.01 μM,95%
same,remaining activity at 1 µM,PAK2(h); Lut014 @ 1 μM,111%
same,remaining activity at 0.01 µM,c-RAF(h); Lut014 @ 0.01 μM,105%
same,remaining activity at 1 µM,c-RAF(h); Lut014 @ 1 μM,30%
same,remaining activity at 0.01 µM,SAPK2a(h); Lut014 @ 0.01 μM,97%
same,remaining activity at 1 µM,SAPK2a(h); Lut014 @ 1 μM,54%
same,remaining activity at 0.01 µM,IKKα(h); Lut014 @ 0.01 μM,105%
same,remaining activity at 1 µM,IKKα(h); Lut014 @ 1 μM,105%
same,remaining activity at 0.01 µM,DRAK1(h); Lut014 @ 0.01 μM,99%
same,remaining activity at 1 µM,DRAK1(h); Lut014 @ 1 μM,117%
same,remaining activity at 0.01 µM,MLK1(h); Lut014 @ 0.01 μM,109%
same,remaining activity at 1 µM,MLK1(h); Lut014 @ 1 μM,112%
same,remaining activity at 0.01 µM,JAK2(h); Lut014 @ 0.01 μM,126%
same,remaining activity at 1 µM,JAK2(h); Lut014 @ 1 μM,118%
same,remaining activity at 0.01 µM,PKBα(h); Lut014 @ 0.01 μM,102%
same,remaining activity at 1 µM,PKBα(h); Lut014 @ 1 μM,105%
same,remaining activity at 0.01 µM,Lyn(h); Lut014 @ 0.01 μM,101%
same,remaining activity at 1 µM,Lyn(h); Lut014 @ 1 μM,46%
same,remaining activity at 0.01 µM,NEK2(h); Lut014 @ 0.01 μM,98%
same,remaining activity at 1 µM,NEK2(h); Lut014 @ 1 μM,125%
same,remaining activity at 0.01 µM,CaMKI(h); Lut014 @ 0.01 μM,101%
same,remaining activity at 1 µM,CaMKI(h); Lut014 @ 1 μM,97%
same,remaining activity at 0.01 µM,PKCα(h); Lut014 @ 0.01 μM,102%
same,remaining activity at 1 µM,PKCα(h); Lut014 @ 1 μM,107%
same,remaining activity at 0.01 µM,Pim-1(h); Lut014 @ 0.01 μM,96%
same,remaining activity at 1 µM,Pim-1(h); Lut014 @ 1 μM,89%
same,remaining activity at 0.01 µM,CDK7/cyclinH/MAT1(h); Lut014 @ 0.01 μM,105%
same,remaining activity at 1 µM,CDK7/cyclinH/MAT1(h); Lut014 @ 1 μM,109%
same,remaining activity at 0.01 µM,Aurora-A(h); Lut014 @ 0.01 μM,95%
same,remaining activity at 1 µM,Aurora-A(h); Lut014 @ 1 μM,97%
same,remaining activity at 0.01 µM,[1]; Lut014 @ 0.01 μM,96%
same,remaining activity at 1 µM,[1]; Lut014 @ 1 μM,94%
same,remaining activity at 0.01 µM,Fyn(h); Lut014 @ 0.01 μM,103%
same,remaining activity at 1 µM,Fyn(h); Lut014 @ 1 μM,95%
same,remaining activity at 0.01 µM,Mnk2(h); Lut014 @ 0.01 μM,112%
same,remaining activity at 1 µM,Mnk2(h); Lut014 @ 1 μM,107%
same,remaining activity at 0.01 µM,eEF-2K(h); Lut014 @ 0.01 μM,95%
same,remaining activity at 1 µM,eEF-2K(h); Lut014 @ 1 μM,106%
same,remaining activity at 0.01 µM,EGFR(h); Lut014 @ 0.01 μM,98%
same,remaining activity at 1 µM,EGFR(h); Lut014 @ 1 μM,100%
same,remaining activity at 0.01 µM,IGF-1R(h); Lut014 @ 0.01 μM,88%
same,remaining activity at 1 µM,IGF-1R(h); Lut014 @ 1 μM,86%
